Measurements taken from paper PMC7646544, “Scaffold hopping and optimisation of 3’,4’-dihydroxyphenyl- containing thienopyrimidinones: synthesis of quinazolinone derivatives as novel allosteric inhibitors of HIV-1 reverse transcriptase-associated ribonuclease H” (Journal of Enzyme Inhibition and Medicinal Chemistry, 2020).
Where two headings read alike, the source gives them in different places.

Assays:
[1] = molecular target: T1, p66/p51C280A mutant HIV-1 RNase H (Human immunodeficiency virus type 1 group M subtype B, UniProt P04585, C867A); design: made in house; method as in PMID 24261890; settings: p66/p51 C280A mutant RT; cited from earlier work
[2] = molecular target: T2, HIV-1 IN in the presence of LEDGF/p75 (Human immunodeficiency virus type 1 group M subtype B, UniProt P04585); experiment: HTRF IN LEDGF/p75-dependent assay; type: biochemical
T2 construct: made in house
Method: The IN LEDGF/p75-dependent assay measures inhibition of IN activity in the presence of LEDGF/p75 protein[35–37]. Briefly, 50 nM IN was pre-incubated with increasing concentration of compounds for 1 h at room temperature in reaction buffer containing 20 mM HEPES pH 7.5, 1 mM DTT, 1% Glycerol, 20 mM MgCl2, 0.05% Brij-35 and 0.1 mg/ml BSA. To this mixture, 9 nM DNA donor substrate (5′-[…]-Biotin-3′ annealed with 5′-[…]-Biotin3’) and 50 nM DNA acceptor substrate (5′-Cy5-[…]-3′ annealed with 5′-Cy5- […]-3′) and 50 nM LEDGF/p75 were added and incubated at 37 °C for 90 min.

[3] = molecular target: T3, HIV-1 RT-associated RDDP (Human immunodeficiency virus type 1 group M subtype B, UniProt P04585); experiment: HIV-1 RNA-dependent DNA polymerase activity determination; type: biochemical; settings: wt RT, poly(A)-oligo(dT)
T3 construct: dynamics at the p66/p51 HIV-1 RT-RNase H dimer interface; made in house
Method: HIV-1 RT-associated RDDP activity was measured as described[17]^,[38]. Briefly, in 25 μL volume containing 60 mM Tris-HCl pH 8.1, 8 mM MgCl2, 60 mM KCl, 13 mM DTT, poly(A)-oligo(dT), 100 μM dTTP, and 6 ng wt RT. After enzyme addition, the reaction mixture was incubated for 30 min at 37 °C and stopped by addition of EDTA. […] All assays were performed in triplicate.

[4] = molecular target: T4, wt HIV-1 RT-associated RNase H (Human immunodeficiency virus type 1 group M subtype B, UniProt P04585); settings: wild type RT, cited from earlier work
T4 construct: dynamics at the p66/p51 HIV-1 RT-RNase H dimer interface; made in house

[5] = molecular target: T4, wt HIV-1 RT-associated RNase H; experiment: RNase H inhibitor analysis, wild type RT (fluorescent RNA/DNA hybrid); type: biochemical; settings: for IC50: wild type RT
Method: All assays were performed in triplicate.

[6] = molecular target: T1, p66/p51C280A mutant HIV-1 RNase H; experiment: RNase H inhibitor analysis, p66/p51 C280A mutant RT
Method: IC50 values were determined as previously reported[31] using an 18-nt 3′-fluorescein-labeled RNA annealed to a complementary 18-nt 5′-dabcyl-labeled DNA. To a 96-well plate was added 1 μL of each inhibitor (in DMSO), followed by 10 μL of the appropriate RT (15−80 ng/mL) in reaction buffer. […] Wells containing only DMSO was used as negative control. […] IC50 values were determined using Prism5 (GraphPad Software, San Diego, CA). All assays were performed in triplicate.

[7] = test system: HIV-1RF isolate in CEM-SS cells; experiment: Antiviral activity, XTT-based cell viability assay; settings: for selectivity index (SI): CC50/EC50, CEM-SS cells; for EC50: Human immunodeficiency virus 1, HIV-1RF, CEM-SS cells, XTT
Method: (§1) Antiviral activity of selected thienopyrimidinones was determined via the 2,3-bis[2-methoxy-4-nitro-5-sulfophenyl]-5-[(phenylamino)carbonyl]-2H tetrazolium hydroxide (XTT)-based cell viability assay of Weislow et al.[45], using the HIV-1RF isolate and human T-cell line CEM-SS.

[8] = Cytotoxicity in XTT-based cell viability assay; settings: human, CEM-SS T cells
Method: as §1

[9] = molecular target: T5, HIV-1 RT-associated RNase H (Human immunodeficiency virus type 1 group M subtype B, UniProt P04585); experiment: Yonetani-Theorell analysis on RNase H activity; type: biochemical; settings: combination of compound 11 and compound 24
T5 construct: dynamics at the p66/p51 HIV-1 RT-RNase H dimer interface; made in house
Method: Yonetani–Theorell analysis[43] was performed as reported. Briefly, HIV RT-associated RNase H activity was measured in 100 µL reaction volume containing 50 mM Tris–HCl buffer pH 7.8, 6 mM MgCl2, 1 mM dithiothreitol (DTT), 80 mM KCl, 0.25 µM hybrid RNA/DNA 5′-[…]-Fluorescin-3′ (HPLC, dry, QC: Mass Check) (available from Metabion) 5′-Dabcyl-[…]-3′(HPLC, dry, QC: Mass Check), and different amount of enzymes according to a linear range of dose-response curve: 20 ng of WT RT, and increasing concentrations of inhibitor (diluted) in water and incubated for 1 h at 37 °C, at 200 rpm. Products were measured with a multilabel counter plate reader Victor 3 (Perkin Elmer model 1420-051) equipped with filters for 490/528 nm (excitation/emission wavelength). A calibration curve for the fluorescein signal was generated in parallel, calculating pmols of product generated by the reaction. The reciprocal of the reaction product was plotted vs. the compound concentration a different condition using the Sigma-Plot software.

Row | SMILES | IC50 [2] | IC50 [3] | IC50 [5] | IC50 [6] | further results
1 | Cc1sc2nc(-c3ccc(O)c(O)c3)[nH]c(=O)c2c1C [Compound 1, 2-(3,4-dihydroxyphenyl)-5,6-dimethylthieno[2,3-d]pyrimidin-4(3H)-one, reference compound] |  |  |  |  | IC50 [1]: 320 nM
2 | Cc1ccc2nc(-c3ccc(O)c(O)c3)[nH]c(=O)c2c1 [Compound 2, 2–(3,4-dihydroxyphenyl)-6-methylquinazolin-4(3H)-one] | 4.3 ± 1.5 µM | > 100 µM |  |  | IC50 ([4]; read-out: IC50 WT RNase H): 0.41 ± 0.01 µM; IC50 [1]: 370 ± 10 nM
3 | Cc1ccc2c(=O)[nH]c(-c3ccc(O)c(O)c3)nc2c1 [Compound 3, 2–(3,4-dihydroxyphenyl)-7-methylquinazolin-4(3H)-one] | 2.35 ± 0.44 µM | 60 ± 9 µM | 0.5 ± 0.02 µM | 230 ± 20 nM | selectivity index (SI) [7]: 2; EC50 [7]: 12000 nM; CC50 [8]: 25000 nM
4 | COc1ccc2nc(-c3ccc(O)c(O)c3)[nH]c(=O)c2c1 [Compound 4, 2–(3,4-dihydroxyphenyl)-6-methoxyquinazolin-4(3H)-one] | 8.5 ± 0.3 µM | 57 ± 3 µM | 0.57 ± 0.02 µM | 410 ± 10 nM | 
5 | COc1cc2nc(-c3ccc(O)c(O)c3)[nH]c(=O)c2cc1OC [Compound 5, 2–(3,4-dihydroxyphenyl)-6,7-dimethoxyquinazolin-4(3H)-one] | 6.5 ± 2.5 µM | > 100 µM | 0.73 ± 0.02 µM | 330 ± 3 nM | 
6 | O=c1[nH]c(-c2ccc(O)c(O)c2)nc2ccc(-c3ccccc3)cc12 [Compound 6, 2–(3,4-dihydroxyphenyl)-6-phenylquinazolin-4(3H)-one] | 89 ± 10 µM | 63 ± 11 µM | 0.37 ± 0.01 µM | 290 ± 6 nM | 
7 | O=c1[nH]c(-c2ccc(O)c(O)c2)nc2cc3ccccc3cc12 [Compound 7, 2–(3,4-dihydroxyphenyl)benzo[g]quinazolin-4(3H)-one] | 31.5 ± 6.5 µM | 23.4 ± 0.5 µM | 1.1 ± 0.04 µM | 510 ± 50 nM | 
8 | O=c1[nH]c(-c2ccc(O)c(O)c2)nc2ccc(I)cc12 [Compound 8, 2–(3,4-dihydroxyphenyl)-6-iodoquinazolin-4(3H)-one] | 3.4 ± 0.83 µM | 26.7 ± 2.2 µM | 0.15 ± 0.01 µM | 120 ± 1 nM | selectivity index (SI) [7]: 2; EC50 [7]: 8300 nM; CC50 [8]: 17000 nM
9 | O=c1[nH]c(-c2ccc(O)c(O)c2)nc2ccc(Br)cc12 [Compound 9, 2–(3,4-dihydroxyphenyl)-6-bromoquinazolin-4(3H)-one] | 7 ± 2 µM | 46 ± 3 µM | 0.45 ± 0.008 µM | 400 ± 10 nM | 
10 | O=c1[nH]c(-c2ccc(O)c(O)c2)nc2ccc(Cl)cc12 [Compound 10, 2–(3,4-dihydroxyphenyl)-6-chloroquinazolin-4(3H)-one] | 3.4 ± 0.6 µM | 30.5 ± 0.4 µM | 0.31 ± 0.01 µM | 200 ± 10 nM | selectivity index (SI) [7]: 4; EC50 [7]: 5400 nM; CC50 [8]: 22000 nM
11 | O=c1[nH]c(-c2ccc(O)c(O)c2)nc2cc(Cl)ccc12 [Compound 11, 2–(3,4-dihydroxyphenyl)-7-chloroquinazolin-4(3H)-one] | 7.2 ± 0.7 µM | > 100 µM | 0.43 ± 0.01 µM | 660 ± 50 nM | interaction constant α [9]: greater than 1; simultaneous inhibition of RNase H (Yonetani-Theorell) [9]: not kinetically mutually exclusive; selectivity index (SI) [7]: 3; EC50 [7]: 1800 nM; CC50 [8]: 6000 nM
12 | O=c1[nH]c(-c2ccc(O)c(O)c2)nc2ccc(F)cc12 [Compound 12, 2–(3,4-dihydroxyphenyl)-6-fluoroquinazolin-4(3H)-one] | 6.61 ± 0.93 µM | > 100 µM | 0.52 ± 0.06 µM | 840 ± 30 nM | 
13 | O=c1[nH]c(-c2ccc(O)c(O)c2)nc2ccc([N+](=O)[O-])cc12 [Compound 13, 2–(3,4-dihydroxyphenyl)-6-nitroquinazolin-4(3H)-one] | 23.2 ± 0.8 µM | 99 ± 1 µM | 0.31 ± 0.01 µM | 170 ± 4 nM | 
14 | O=C1NC(c2ccc(O)c(O)c2)Nc2ccc(Cl)cc21 (stereo not shown) [Compound 14, 6-chloro-2–(3,4-dihydroxyphenyl)-2,3-dihydroquinazolin-4(1H)-one] | > 100 µM | > 100 µM | 0.56 ± 0.25 µM | 400 ± 30 nM | 
15 | O=c1[nH]c(-c2ccc(O)c(O)c2)nc2c1oc1ccccc12 [Compound 15, 2–(3,4-dihydroxyphenyl)benzofuro[3,2-d]pyrimidin-4(3H)-one] | 5.35 ± 0.35 µM | 25.3 ± 6.3 µM | 0.64 ± 0.03 µM | 390 ± 10 nM | 
16 | O=c1[nH]c(-c2ccc(O)c(O)c2)nc2ncccc12 [Compound 16, 2–(3,4-dihydroxyphenyl)pyrido[2,3-d]pyrimidin-4(3H)-one] | 0.69 ± 0.19 µM | 38 ± 4 µM | 2.4 ± 1.6 µM | 2000 ± 100 nM | 
17 | O=c1[nH]c(-c2ccc(O)c(O)c2)nc2ccccc12 [Compound 17, 2–(3,4-dihydroxyphenyl)quinazolin-4(3H)-one] | 1.44 ± 0.4 µM | 70 ± 1 µM |  |  | fold less potent HIV-1 RNase H inhibitor ([5]; compared with decorated quinazolinone 2): 8 fold; IC50 ([4]; read-out: IC50 (µM) WT RNase H): 3.46 ± 0.47 µM
18 | O=C(O)c1ccc(-c2nc3ccccc3c(=O)[nH]2)cc1O [Compound 18, 2-hydroxy-4-(4-oxo-3,4-dihydroquinazolin-2-yl)benzoic acid] |  |  | 13.6 ± 0.3 µM |  | 
19 | Nc1ccc(-c2nc3ccccc3c(=O)[nH]2)cc1O [Compound 19, 2-(4-amino-3-hydroxyphenyl)quinazolin-4(3H)-one] |  |  | > 50 µM |  | 
20 | Nc1ccc(-c2nc3ccccc3c(=O)[nH]2)cc1N [Compound 20, 2–(3,4-diaminophenyl)quinazolin-4(3H)-one] |  |  | > 50 µM |  | 
21 | O=c1[nH]c(-c2ccc([N+](=O)[O-])c(O)c2)nc2ccccc12 [Compound 21, 2–(3-hydroxy-4-nitrophenyl)quinazolin-4(3H)-one] |  |  | > 50 µM |  | 
22 | Oc1ccc(-c2ccc3ccccc3n2)cc1O [Compound 22, 4-(quinolin-2-yl)benzene-1,2-diol] |  |  | 2.9 ± 0.89 µM | 610 ± 220 nM | fold more potent on C280A mutant RT RNase H than wt RT ([6]; C280A vs wt): 4 fold
23 | Oc1ccc(-c2ccc3ccccc3c2)cc1O [Compound 23, 4-(naphthalen-2-yl)benzene-1,2-diol] |  |  | 0.71 ± 0.03 µM | 1200 ± 40 nM | fold more potent than the reported compound 17 ([5]; wt RT RNase H): 5 fold; selectivity index (SI) [7]: 2; EC50 [7]: 14000 nM; CC50 [8]: 26000 nM
24 | O=c1[nH]c(-c2ccc(O)c(O)c2)nc2sc3c(c12)CCCCC3 [Compound 24, 2–(3,4-dihydroxyphenyl)-3,5,6,7,8,9-hexahydro-4H-cyclohepta[4,5]thieno[2,3-d]pyrimidin-4-one, reference compound] |  |  |  |  | interaction constant α [9]: greater than 1; simultaneous inhibition of RNase H (Yonetani-Theorell) [9]: not kinetically mutually exclusive
